In US4088793A, “Control of nitrosamine formation in nitrite cured meat” (Canada Packers Limited, priority 1977, dated 1978):

How the values were obtained:
[1] = Volatile nitrosamine content of cook-out fat from fried nitrite-cured bacon slices streaked with test compound; conditions: for blocking of formation of nitrosamines: 20 ppm level of incorporation in the meat; for inhibition of nitrosamine formation: in comparison with the untreated controls
From the text: The mechanism by which the 1,2-dihydro- and 1,2,3,4-tetrahydro-6-hydroxyquinoline nitroxides interfere with the formation of nitrosamines at high temperature is not completely understood. However, the invention is not limited by any particular theory of operation. It has been shown by a series of tests with representative compounds that up to 100% of the nitrosamines which normally appear in fried bacon have been eliminated.
The nitroxide compounds from ethoxyquin and from dihydroethoxyquin, prepared as in Examples 1 and 2, respectively, were dissolved in separate portions of winterized soya oil to provide a 4.5% concentration and the resulting solutions were streaked on bacon slices, which had undergone a conventional nitrite cure and plant processing, in quantities providing levels of 1,2-dihydro-2,2,4-trimethyl-6-hydroxy-quinoline nitroxide of from 1 ppm to 100 ppm in the meat for one series of tests and levels of 1 - 20 ppm of the corresponding 1,2,3,4-tetrahydroquinoline nitroxide compound in the meat for another series of tests. Control slices of bacon were streaked with the oil alone. The bacon slices were fried under standardized conditions and the cook-out fat was analyzed for volatile nitrosamine content.

[2] = tested on: experimental animals; conditions: tests on experimental animals; cited from earlier work

In the case of “1,2,3,4-tetrahydro-2,2,4-trimethyl-6-hydroxy-quinoline nitroxide [Nitroxide from Dihydro Ethoxyquin]”, the “blocking of formation of nitrosamines” value [1] is reported as “essentially blocked formation of nitrosamines”, the “Nitrosamines In Cook-Out Fat, Test Product” value (shortened to “Nitrosamines In Cook-Out Fat”) ([1]; Example 13: 20 ppm in meat, control product 35 ppb) is reported as 3 ppb and the “Nitrosamines In Cook-Out Fat” value ([1]; Example 14: 10 ppm in meat, control product 35 ppb) is reported as 13 ppb. The “Nitrosamines In Cook-Out Fat” value ([1]; Example 15: 1 ppm in meat, control product 35 ppb) was 20 ppb, the “Nitrosamines In Cook-Out Fat” value ([1]; Example 16: 20 ppm in meat, control product 36 ppb, figures below 3 ppb not reliable) was 2 ppb and the “Nitrosamines In Cook-Out Fat” value ([1]; Example 17: 10 ppm in meat, control product 36 ppb) was 6 ppb. The “Nitrosamines In Cook-Out Fat” value ([1]; Example 18: 1 ppm in meat, control product 36 ppb) was 22 ppb and the “inhibition of nitrosamine formation” value [1] was “excellent inhibition of nitrosamine formation”.

With “1,2-dihydro-2,2,4-trimethyl-6-hydroxy-quinoline nitroxide [Nitroxide from Ethoxyquin]” the “blocking of formation of nitrosamines” value [1] was “essentially blocked formation of nitrosamines”, the “Nitrosamines In Cook-Out Fat” value ([1]; Example 3: 100 ppm in meat, control product 18 ppb, figures below 3 ppb not reliable) was 0 ppb and the “Nitrosamines In Cook-Out Fat” value ([1]; Example 4: 50 ppm in meat, control product 19 ppb, figures below 3 ppb not reliable) was 0 ppb. The “Nitrosamines In Cook-Out Fat” value ([1]; Example 5: 10 ppm in meat, control product 19 ppb) was 3 ppb, the “Nitrosamines In Cook-Out Fat” value ([1]; Example 6: 1 ppm in meat, control product 19 ppb) was 13 ppb and the “Nitrosamines In Cook-Out Fat” value ([1]; Example 7: 20 ppm in meat, control product 8 ppb, figures below 3 ppb not reliable) was 0 ppb. The “Nitrosamines In Cook-Out Fat” value ([1]; Example 8: 10 ppm in meat, control product 8 ppb, figures below 3 ppb not reliable) was 0 ppb, the “Nitrosamines In Cook-Out Fat” value ([1]; Example 9: 1 ppm in meat, control product 8 ppb, figures below 3 ppb not reliable) was 2 ppb and the “Nitrosamines In Cook-Out Fat” value ([1]; Example 10: 20 ppm in meat, control product 38 ppb, figures below 3 ppb not reliable) was 2 ppb. For the same compound, the “Nitrosamines In Cook-Out Fat” value ([1]; Example 11: 10 ppm in meat, control product 38 ppb) was 5 ppb, the “Nitrosamines In Cook-Out Fat” value ([1]; Example 12: 1 ppm in meat, control product 38 ppb) was 16 ppb and the “inhibition of nitrosamine formation” value [1] was “excellent inhibition of nitrosamine formation”.

For O=NN1CCCC1 [N-nitrosopyrrolidine], the carcinogenicity [2] is given as “carcinogenic”.

For CN(C)N=O [dimethylnitrosamine], the carcinogenicity [2] is given as “carcinogenic”.
